Assay results published in PubChem BioAssay AID1963440 (Molecular Pharmacology Branch, DTP, NCI, 2024).
pIC50: −log10 of the molar value.

Test system: NCI-H1417 complex spheroids, growth % test/control
Test: Anticancer human tumor NCI-H1417 cell line growth inhibition [Asc];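 further: spheroids exposed to compounds for 7 days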;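 on viability, T/C: 100% = DMSO vehicle control wells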
Details: for pIC50: curve of first compound; for viability, T/C: stronger effect = lower value; active means viability on the fitted dose curve at most 10% of control; inactive means the rest
Procedure, shortened: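 Concentration series start at each agent's clinical Cmax, or at 10 microM when none is established, and drop in half-log steps; agents are applied alone or together to complex spheroids built with HUVEC and hMSC.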

NC(=O)C(=Cn1cnc(-c2cc(C(F)(F)F)cc(C(F)(F)F)c2)n1)c1cncnc1 + CNC(C)C(=O)NC1CN(S(=O)(=O)c2cccc(S(=O)(=O)N3CCC4CCC(C(=O)NC(c5ccccc5)c5ccccc5)N4C(=O)C(NC(=O)C(C)NC)C3)c2)CCC2CCC(C(=O)NC(c3ccccc3)c3ccccc3)N2C1=O
< 6.52: pIC50 (second compound 0.01 µM)
6.60: pIC50 (second compound 1 µM)
6.52: pIC50 (second compound 0.0316 µM)
6.58: pIC50 (second compound 0.316 µM)
6.56: pIC50 (second compound 0.1 µM)
inactive: viability, T/C (second compound 0.01 µM, first compound 0.000949 µM) 103% | viability, T/C (second compound 0.01 µM, first compound 0.003 µM) 93.3% | viability, T/C (second compound 0.01 µM, first compound 0.00949 µM) 99.5% | viability, T/C (second compound 0.01 µM, first compound 0.03 µM) 103% | viability, T/C (second compound 0.01 µM, first compound 0.0949 µM) 89.6% | viability, T/C (second compound 0.01 µM, first compound 0.3 µM) 63.3% | viability, T/C (second compound 0.0316 µM, first compound 0.000949 µM) 111% | viability, T/C (second compound 0.0316 µM, first compound 0.003 µM) 94.2% | viability, T/C (second compound 0.0316 µM, first compound 0.00949 µM) 93% | viability, T/C (second compound 0.0316 µM, first compound 0.03 µM) 102% | viability, T/C (second compound 0.0316 µM, first compound 0.0949 µM) 83.5% | viability, T/C (second compound 0.0316 µM, first compound 0.3 µM) 49.6% | viability, T/C (second compound 0.1 µM, first compound 0.000949 µM) 89.3% | viability, T/C (second compound 0.1 µM, first compound 0.003 µM) 104% | viability, T/C (second compound 0.1 µM, first compound 0.00949 µM) 105% | viability, T/C (second compound 0.1 µM, first compound 0.03 µM) 90.2% | viability, T/C (second compound 0.1 µM, first compound 0.0949 µM) 76% | viability, T/C (second compound 0.1 µM, first compound 0.3 µM) 47.8% | viability, T/C (second compound 0.316 µM, first compound 0.000949 µM) 110% | viability, T/C (second compound 0.316 µM, first compound 0.003 µM) 98.7% | viability, T/C (second compound 0.316 µM, first compound 0.00949 µM) 112% | viability, T/C (second compound 0.316 µM, first compound 0.03 µM) 92.2% | viability, T/C (second compound 0.316 µM, first compound 0.0949 µM) 86.7% | viability, T/C (second compound 0.316 µM, first compound 0.3 µM) 45.1% | viability, T/C (second compound 1 µM, first compound 0.000949 µM) 91.5% | viability, T/C (second compound 1 µM, first compound 0.003 µM) 92.7% | viability, T/C (second compound 1 µM, first compound 0.00949 µM) 93% | viability, T/C (second compound 1 µM, first compound 0.03 µM) 94.8% | viability, T/C (second compound 1 µM, first compound 0.0949 µM) 86.9% | viability, T/C (second compound 1 µM, first compound 0.3 µM) 42.6%

O=C(c1cc(Cc2n[nH]c(=O)c3ccccc23)ccc1F)N1CCN(C(=O)C2CC2)CC1 + Cc1c(S(C)(=O)=O)c(-c2cc(F)cc(N3CCN(c4ccc(NS(=O)(=O)c5ccc(NC(CCN6CCC(C(=O)OCCCP(=O)(O)O)CC6)CSc6ccccc6)c(S(=O)(=O)C(F)(F)F)c5)cc4)CC3)c2)c(-c2ccc(Cl)cc2)n1C(C)C
inactive: viability, T/C (second compound 0.1 µM, first compound 0.0316 µM) 78.7% | viability, T/C (second compound 0.1 µM, first compound 0.1 µM) 78.5% | viability, T/C (second compound 0.1 µM, first compound 0.316 µM) 69.3% | viability, T/C (second compound 0.1 µM, first compound 1 µM) 52.8% | viability, T/C (second compound 0.1 µM, first compound 3.16 µM) 25.5% | viability, T/C (second compound 0.316 µM, first compound 0.0316 µM) 44.5% | viability, T/C (second compound 0.316 µM, first compound 0.1 µM) 37% | viability, T/C (second compound 0.316 µM, first compound 0.316 µM) 35.1% | viability, T/C (second compound 0.316 µM, first compound 1 µM) 23.2% | viability, T/C (second compound 0.316 µM, first compound 3.16 µM) 7.41% | viability, T/C (second compound 1 µM, first compound 0.0316 µM) 10.6% | viability, T/C (second compound 1 µM, first compound 0.1 µM) 14.2%
> 7.50: pIC50 (second compound 0.316 µM) | pIC50 (second compound 1 µM) | pIC50 (second compound 3.16 µM) | pIC50 (second compound 10 µM)
active: viability, T/C (second compound 0.1 µM, first compound 10 µM) 5.06% | viability, T/C (second compound 0.316 µM, first compound 10 µM) 3.61% | viability, T/C (second compound 1 µM, first compound 0.316 µM) 8.49% | viability, T/C (second compound 1 µM, first compound 1 µM) 5.49% | viability, T/C (second compound 1 µM, first compound 3.16 µM) 2.71% | viability, T/C (second compound 1 µM, first compound 10 µM) 3.64% | viability, T/C (second compound 3.16 µM, first compound 0.0316 µM) 2.9% | viability, T/C (second compound 3.16 µM, first compound 0.1 µM) 2.62% | viability, T/C (second compound 3.16 µM, first compound 0.316 µM) 2.54% | viability, T/C (second compound 3.16 µM, first compound 1 µM) 2.33% | viability, T/C (second compound 3.16 µM, first compound 3.16 µM) 2.43% | viability, T/C (second compound 3.16 µM, first compound 10 µM) 2.96% | viability, T/C (second compound 10 µM, first compound 0.0316 µM) 2.71% | viability, T/C (second compound 10 µM, first compound 0.1 µM) 2.63% | viability, T/C (second compound 10 µM, first compound 0.316 µM) 2.54% | viability, T/C (second compound 10 µM, first compound 1 µM) 1.96% | viability, T/C (second compound 10 µM, first compound 3.16 µM) 2.66% | viability, T/C (second compound 10 µM, first compound 10 µM) 3.21%
5.95: pIC50 (second compound 0.1 µM)

Cc1c(S(C)(=O)=O)c(-c2cc(F)cc(N3CCN(c4ccc(NS(=O)(=O)c5ccc(NC(CCN6CCC(C(=O)OCCCP(=O)(O)O)CC6)CSc6ccccc6)c(S(=O)(=O)C(F)(F)F)c5)cc4)CC3)c2)c(-c2ccc(Cl)cc2)n1C(C)C (stereo unspecified)
322 nM [middle of 14 runs]: IC50 (compound alone, run of 10/11/2022)
active: viability, T/C (compound 3.16 µM) 3.19% [middle of 14 runs] | viability, T/C (compound 10 µM) 2.54% [middle of 12 runs]
inactive: viability, T/C (compound 0.1 µM) 81.6% [middle of 14 runs] | viability, T/C (compound 0.316 µM) 50.6% [middle of 14 runs] | viability, T/C (compound 1 µM) 13.7% [middle of 14 runs]
